We go through five substances from patent US20220273759A1, “PHARMACEUTICAL ASSOCIATION FOR CONVERTING A NEOPLASTIC CELL INTO A NON-NEOPLASTIC CELL AND USES THEREOF” (HISTIDE AG, priority 2015, published 2022).

Where no end group is shown, it is not given here.

A short description of series [1]: Stability of non-covalent association (release of FITC-labelled GFR-binding compound from carrier). The conditions noted are these: after 3, 7 or 10 days. The format is physicochemical. The protocol: Non-covalent associations of the bioactive carriers were performed under atmospheric conditions (air) at room temperature (about 22° C.). The non-covalent association was carried out using a mixture of GFR-binding compound of SEQ ID NO: 9 (concentration of 1×10^−3 M) with the apatite ceramics or a mixture of GFR-binding compound of SEQ ID NO: 10 (concentration of 1×10^−3 M) with the type-I collagen sponge. The non-covalent pharmaceutical associations were characterized by covalently associating fluorescent GFR-binding compounds of SEQ ID NO: 9 and 10 (covalently bound to fluorescein isothiocyanate (FITC), FIG. 1).

For the next series, the system named is Paxillin. The series can be described thus: Paxillin gene expression by RT-PCR in osteosarcoma cells. The class given is cell-based. The conditions noted are these: PET carrier, after 24 hours. As to the method:
(§1) After 24 hours of culture, total RNA was extracted by using the RNeasy total RNA kit (Qiagen®) according to the manufacturer's instructions. Purified total RNA was used as a template in order to make cDNA by a reverse transcription reaction (Gibco Brl®) with random primers (Invitrogen®). The cDNA was then used as a template for a real-time PCR amplification in the presence of SYBR green reagents (Bio-Rad®) by using a thermocycler (iCycler, Biorad®). Data were analyzed with the iCycler IQ™® software and compared by the ΔΔCt method. Briefly, the mean Ct value of the target gene was normalized to its averaged Ct values of the housekeeping gene (GAPDH) to give a ΔCt value, which was then normalized to a control sample to obtain a ΔΔCt value. The results were obtained from two series of experiments performed in triplicate.
(§2) Neoplastic cells (in this example osteosarcoma cells) were cultured on pharmaceutical associations comprising PET as a bioactive carrier and one of GFR-binding compounds of SEQ ID NO: 12, 19, 30 or 39. After 24 hours, the Paxillin and Vinculin gene expression decreased as shown by RT-PCR (FIG. 9).

Series [2] relates to Cyclin D (Cyclin D1, Cyclin D2 and Cyclin D3). The series is described as follows: Cyclin D profile by RT-PCR in osteosarcoma cells. The format is cell-based. The conditions noted are these: PET carrier, after the first 30 min of cell culture.
Text: There are many ways to test, measure and represent the inhibitory effect of a given substance on the gene or protein expression of cyclins D, but for the purpose of the present disclosure, and for the avoidance of any doubts, the inhibition values of a given pharmaceutical association or composition as defined herein is a measure of the gene expression of cyclins D as provided by RT-PCR. It is to be understood that the values of the gene expression of cyclins D disclosed herein correspond to the total gene expression of all cyclins D present in the tested cell i.e. D1, D2 and D3 as known at the date of the present disclosure.
as §1
Neoplastic cells (in this example osteosarcoma cells) were cultured on pharmaceutical associations comprising PET as a bioactive carrier and one of GFR-binding compounds of SEQ ID NO: 12, 19, 30 or 39. […]

Series [3] is described as follows: Adhesion checkpoint activation, western blot of PDK1 in osteosarcoma cells. The format is cell-based. The conditions noted are these: PET carrier, after 24 hours. The protocol: (§3) After 24 hours of culture, cells were permeabilized (10% SDS, 25 mM NaCl, 10 nM pepstatin and 10 nM leupeptin in distilled water and loading buffer), boiled for 10 minutes and resolved by reducing PAGE (Invitrogen). Proteins were transferred onto nitrocellulose, blocked, and labeled with HRP-conjugated antibodies (Invitrogen). […] Phosphor-Smad1/5/8 was blotted by treating the nitrocellulose with monoclonal anti-p-Smad1/5/8 (Santa Cruz Biotechnology). For all of the experiments the western blot was performed in triplicate, along with an additional blot for actin and coomassie blue staining to ensure constant protein load among samples.
(§4) Neoplastic cells (in this example osteosarcoma cells) were cultured on pharmaceutical associations comprising PET as a bioactive carrier and one of GFR-binding compounds of SEQ ID NO: 12, 19, 30 or 39. The main signaling pathways include: Ras/MAP kinase, FAK/Src kinase and PIP2 which are decreased after 24 hours as shown by western blot quantifications (FIG. 8). […] Finally, a decrease of 3-phosphoinositide-dependent protein kinase 1 (PDK1) protein expression was also was observed (FIG. 8C).
For orientation: In western blotting, separated proteins are transferred to a membrane and probed.

In another series the test system is Ras/MAP kinase. The series is described as follows: Adhesion checkpoint activation, western blot of ERK phosphorylation in osteosarcoma cells. The conditions noted are these: PET carrier, after 24 hours. The format is cell-based. The protocol:
as §3, §4

The next series deals with Vinculin. The series can be described thus: Vinculin gene expression by RT-PCR in osteosarcoma cells. The format is cell-based. The conditions noted are these: PET carrier, after 24 hours. The protocol:
as §1, §2

For series [4], the system named is neoplastic cells (osteosarcoma cells). The series can be described thus: Immunofluorescence visualization of neoplastic cells cultured on a polymer scaffold covalently modified with a GFR-binding compound and a RGD peptide. The conditions noted are these: polymer scaffold covalently modified with a mixture of GFR-binding compound and RGD peptide; after 24 hours of culture. The format is cell-based. The protocol: (b) Immunofluorescence visualization of a neoplastic cell (osteosarcoma cells) after silencing integrins α3β1 by using shRNAs, after 24 hours of culture on a polymer scaffold covalently grafted with RGD peptides. […] The actin filaments were immunostained by using Alexa 488-phalloidin. The focal adhesions were represented by immunostaining with anti-vinculin. The nucleus was stained with DAPI and is represented by a circle in the center of the cell. Scale bar: 5 μm. (c) Immunofluorescence visualization of neoplastic cells cultured on a polymer scaffold covalently modified with a mixture comprising a GFR-binding compound as defined herein (SEQ ID NO: 2) and a RGD peptide, after 24 hours of culture. Scale bar: 500 μm. […] The actin filaments were immunostained by using Alexa 488-phalloidin. The focal adhesions were represented by immunostaining with anti-vinculin. The nucleus was stained with DAPI and is represented by a circle in the center of the cell.

For “SEQ ID NO: 10: GFR-binding compound of the sequence listing, non-covalently associated with type-I collagen sponge; sequence not shown in this part (KVGKASSVPTKLSAISTLYL; Non-cyclic GFR-binding peptide)”, the “release of GFR-binding compounds from the carrier” value in series [1] was “no significant release”.

For the substance “SEQ ID NO: 30: GFR-binding compound of the sequence listing, tested on PET as bioactive carrier; sequence not shown in this part (KIPKASSVPTELEPLPIVYY; Non-cyclic GFR-binding peptide)”, the Paxillin gene expression result in the series with Paxillin is on record as “decreased”. In series [2], the “Cyclin D gene expression (arithmetic mean of Cyclin D1, D2 and D3)” value is recorded as “decreased”. For the same substance, in series [3], the “3-phosphoinositide-dependent protein kinase 1 (PDK1) protein expression” value was “decrease”. Further, the “phosphorylation at Thr202 and Tyr204 on ERK” value in the series with Ras/MAP kinase was “absence of phosphorylation”. In the series on Vinculin, the Vinculin gene expression entry is “decreased”.

As to “SEQ ID NO: 39: GFR-binding compound of the sequence listing, tested on PET as bioactive carrier; sequence not shown in this part (KIPKASSVPTELEPLPILYF; Non-cyclic GFR-binding peptide)”, in the series with Paxillin, the Paxillin gene expression result was “decreased”. Also, the “Cyclin D gene expression (arithmetic mean of Cyclin D1, D2 and D3)” value in series [2] was “decreased”. The “3-phosphoinositide-dependent protein kinase 1 (PDK1) protein expression” value in series [3] is given as “decrease”. The “phosphorylation at Thr202 and Tyr204 on ERK” value in the series with Ras/MAP kinase is “absence of phosphorylation”. Moreover, the Vinculin gene expression result in the series on Vinculin is reported as “decreased”.

Turning to “SEQ ID NO: 2: GFR-binding compound as defined herein, covalently grafted on a polymer scaffold in a mixture with a RGD peptide (YVPKPSSAPTKLNAISTLYF; also: covalently grafted on a polymer scaffold)”, the “morphology of neoplastic cells (immunofluorescence: actin, vinculin, DAPI)” value in series [4] is listed as “Spheroid-like structures of neoplastic cells become predominant”.

With “SEQ ID NO: 9: GFR-binding compound of the sequence listing, non-covalently associated with apatite ceramics; sequence not shown in this part (AVPKASSAPTKLSAISMLYL; Non-cyclic GFR-binding peptide)”, in series [1], the “release of GFR-binding compounds from the carrier” value is on record as “no significant release”.
